Test results: patent publication US6395896B2, “Pyridazine derivatives, manufacturing method and related composition” (Shiseido Co., Ltd., priority 1999, dated 2002)

Columns and labels:
[1] = Photostability test (aqueous solution exposed to sunlight); format: physicochemical; details: sunlight 80 MJ/m^2, two weeks
Method: After an aqueous solution of the pyridazine derivative of the present invention was exposed to sunlight (Amount of solar radiation exposure 80 MJ/m^2) for two weeks, residual yield and change of appearance were checked. UV absorption spectrum (Solvent: water, concentration: 10 ppm, Light path: 1 cm) was measured by spectrophotometer. Area value was calculated by integrating over the range of 290 nm to 400 nm of the ultraviolet rays absorption spectrum. The area value was compared with the value before sunlight exposure.
The residual yield and change of area value of ultraviolet rays absorption spectrum were evaluated by the following standard.
A: 95% or more of area value before sunlight exposure.
B: 90% or more and less than 95% of area value before sunlight exposure.
C: 70% or more and less than 90% of area value before sunlight exposure.
D: less than 70% of area value before sunlight exposure.

[2] = Perfume stabilization effect (photostabilizer, sunlight exposure, judgement by perfumier); parameters: key to Sunlight exposure (80 MJ) Smell evaluation / Sunlight exposure (80 MJ) evaluation: A: No change; B: No almost change; C: Yes change
Method: Next, the photostabilization effect for each perfume was studied by the following evaluation formulation.
Each test sample was prepared. Change of smell of sample exposed to sunlight (80 MJ) was observed (judgement by perfumier).

[3] = Drug stabilization effect (sequestering agent combination); parameters: key to Sunlight exposure (80 MJ) Appearance: A: No change; B: No almost change; C: Yes change; details: for Sunlight exposure (80 MJ) Appearance / Sunlight exposure (80 MJ) Residual yield [%]: amounts wt %
Method: Next, when combined with a sequestering agent, the photostabilization effect and appearance change of a composition for each drug was studied by the following evaluation formulation.
Each test sample was prepared. Appearance change of the samples exposed to sunlight (around 80 MJ) was observed (visual evaluation). Also, residual yield of a drug was measured by liquid chromatography.

[4] = Stability test in case of including UV shielding agent of inorganic powder (sun-screen cream); format: physicochemical; details: sun-screen cream with inorganic powder, 10.0 wt % ultraviolet absorbent; 2 months at 50° C.; visual observation
Method: The sun screen cream of the following formulation was manufactured. These were preserved for 2 months at 50° C. By visual observation of discoloration, the inventors have checked stability when using an UV shielding agent of inorganic powder which is included as external skin preparation for the ultraviolet rays defense.
After (2) was added to (1) and was swelled sufficiently, (3) to (11) was added thereto and was mixed with heating. The mixture was sufficiently dissolved with dispersing. This dispersed liquid was kept at 70° C. After this dispersed liquid was emulsified homogeneously by homomixer with adding a mixture of (12) to (15) gradually, which was cooled to 30° C. with stirring well to obtain sun screen.

[5] = drug 2-o-α-α-glucopyranosyl-L-ascorbic acid 2.0, photostabilizer 0.03 + Sodium metaphosphate 0.03
[6] = drug 2-o-α-α-glucopyranosyl-L-ascorbic acid 2.0, photostabilizer 0.03, no sequestering agent
[7] = drug Dibutylhydroxytoluene 0.01, photostabilizer 0.03 + Sodium metaphosphate 0.03
[8] = drug Dibutylhydroxytoluene 0.01, photostabilizer 0.03, no sequestering agent
[9] = drug Dipotassium glycyrrhizinate 0.05, photostabilizer 0.03 + Sodium metaphosphate 0.03
[10] = drug Dipotassium glycyrrhizinate 0.05, photostabilizer 0.03, no sequestering agent
[11] = drug L-ascorbic acid 2-(dl-α-tocopheryl hydrogen phosphate) potassium salt 0.01, photostabilizer 0.03 + Trisodium hydroxyethyl ethylenediamine triacetate 0.03
[12] = drug L-ascorbic acid 2-(dl-α-tocopheryl hydrogen phosphate) potassium salt 0.01, photostabilizer 0.03, no sequestering agent
[13] = drug Salicylic acid 0.1, photostabilizer 0.03 + Trisodium ethylenediamine tetraacetate 0.03
[14] = drug Salicylic acid 0.1, photostabilizer 0.03, no sequestering agent

In the case of `Oc1nncc(N2CCOCC2)c1N1CCOCC1` [4,5-Dimorpholino-3-hydroxypyridazine], the Residual yield [1] is reported as “A (95% or more of area value before sunlight exposure.)”, the “Change of area value of UV absorption spectrum” value ([1]; 290 nm to 400 nm) is reported as “A (95% or more of area value before sunlight exposure.)” and the “Sunlight exposure (80 MJ) Smell evaluation” value ([2]; Base perfume Aldehyde 0.03 wt %, photostabilizer 0.2 wt %) is reported as “A”. For the same compound, the “Sunlight exposure (80 MJ) Smell evaluation” value ([2]; Base perfume Animal 0.03 wt %, photostabilizer 0.3 wt %) was “A”, the “Sunlight exposure (80 MJ) Smell evaluation” value ([2]; Base perfume Chypre 0.03 wt %, photostabilizer 0.01 wt %) was “A” and the “Sunlight exposure (80 MJ) Smell evaluation” value ([2]; Base perfume Citrus 0.03 wt %, photostabilizer 0.03 wt %) was “A”. For the same compound, the “Sunlight exposure (80 MJ) Smell evaluation” value ([2]; Base perfume Fougere 0.03 wt %, photostabilizer 0.1 wt %) was “A”, the “Sunlight exposure (80 MJ) Smell evaluation” value ([2]; Base perfume Fruity 0.03 wt %, photostabilizer 0.1 wt %) was “A” and the “Sunlight exposure (80 MJ) Smell evaluation” value ([2]; Base perfume Green 0.03 wt %, photostabilizer 0.05 wt %) was “A”. The “Sunlight exposure (80 MJ) Smell evaluation” value ([2]; Base perfume Jasmine 0.03 wt %, photostabilizer 0.01 wt %) was “A”, the “Sunlight exposure (80 MJ) Smell evaluation” value ([2]; Base perfume Muguet 0.03 wt %, photostabilizer 0.05 wt %) was “A” and the “Sunlight exposure (80 MJ) Smell evaluation” value ([2]; Base perfume Oriental 0.03 wt %, photostabilizer 0.1 wt %) was “A”. The “Sunlight exposure (80 MJ) Smell evaluation” value ([2]; Base perfume Rose 0.03 wt %, photostabilizer 0.05 wt %) was “A”, the “Sunlight exposure (80 MJ) Smell evaluation” value ([2]; Base perfume Spicy 0.03 wt %, photostabilizer 0.2 wt %) was “A” and the “Sunlight exposure (80 MJ) Smell evaluation” value ([2]; Base perfume Woody 0.03 wt %, photostabilizer 0.1 wt %) was “A”. The “Sunlight exposure (80 MJ) Smell evaluation” value ([2]; Natural perfume Jasmine oil 0.03 wt %, photostabilizer 0.05 wt %) was “A”, the “Sunlight exposure (80 MJ) Smell evaluation” value ([2]; Natural perfume Lavender oil 0.03 wt %, photostabilizer 0.1 wt %) was “A” and the “Sunlight exposure (80 MJ) Smell evaluation” value ([2]; Natural perfume Neroli oil 0.03 wt %, photostabilizer 0.1 wt %) was “A”. For the same compound, the “Sunlight exposure (80 MJ) Smell evaluation” value ([2]; Natural perfume Rose oil 0.03 wt %, photostabilizer 0.05 wt %) was “A”, the “Sunlight exposure (80 MJ) Smell evaluation” value ([2]; Natural perfume Ylang ylang oil 0.03 wt %, photostabilizer 0.2 wt %) was “A” and the “Sunlight exposure (80 MJ) Smell evaluation” value ([2]; Synthetic perfume Citral 0.03 wt %, photostabilizer 0.1 wt %) was “A”. The “Sunlight exposure (80 MJ) Smell evaluation” value ([2]; Synthetic perfume Limonene 0.03 wt %, photostabilizer 0.05 wt %) was “A”, the “Sunlight exposure (80 MJ) Smell evaluation” value ([2]; Synthetic perfume Linalool 0.03 wt %, photostabilizer 0.05 wt %) was “A” and the “Sunlight exposure (80 MJ) Smell evaluation” value ([2]; Synthetic perfume Linalyl acetate 0.03 wt %, photostabilizer 0.1 wt %) was “A”. For the same compound, the “Sunlight exposure (80 MJ) Smell evaluation” value ([2]; Synthetic perfume Rose oxide 0.03 wt %, photostabilizer 0.2 wt %) was “A”, the change of smell ([2]; base perfume, summary of Table 19) was “very small in comparison with other photostabilizers” and the “Sunlight exposure (80 MJ) evaluation” value ([2]; natural perfume Ambergris oil, photostabilizer amount 0.3 wt %) was “A”. The “Sunlight exposure (80 MJ) evaluation” value ([2]; natural perfume Bergamot oil, photostabilizer amount 0.1 wt %) was “A”, the “Sunlight exposure (80 MJ) evaluation” value ([2]; natural perfume Castoreum oil, photostabilizer amount 0.3 wt %) was “A” and the “Sunlight exposure (80 MJ) evaluation” value ([2]; natural perfume Cinnamon oil, photostabilizer amount 0.01 wt %) was “A”. For the same compound, the “Sunlight exposure (80 MJ) evaluation” value ([2]; natural perfume Civet oil, photostabilizer amount 0.2 wt %) was “A”, the “Sunlight exposure (80 MJ) evaluation” value ([2]; natural perfume Clary sage oil, photostabilizer amount 0.03 wt %) was “A” and the “Sunlight exposure (80 MJ) evaluation” value ([2]; natural perfume Cloves oil, photostabilizer amount 0.03 wt %) was “A”. The “Sunlight exposure (80 MJ) evaluation” value ([2]; natural perfume Coriander oil, photostabilizer amount 0.01 wt %) was “A”, the “Sunlight exposure (80 MJ) evaluation” value ([2]; natural perfume Geranium oil, photostabilizer amount 0.03 wt %) was “A” and the “Sunlight exposure (80 MJ) evaluation” value ([2]; natural perfume Lemon oil, photostabilizer amount 0.001 wt %) was “A”. The “Sunlight exposure (80 MJ) evaluation” value ([2]; natural perfume Moss oil, photostabilizer amount 0.2 wt %) was “A”, the “Sunlight exposure (80 MJ) evaluation” value ([2]; natural perfume Nutmeg oil, photostabilizer amount 0.01 wt %) was “A” and the “Sunlight exposure (80 MJ) evaluation” value ([2]; natural perfume Oakmoss oil, photostabilizer amount 0.2 wt %) was “A”. For the same compound, the “Sunlight exposure (80 MJ) evaluation” value ([2]; natural perfume Opopanax oil, photostabilizer amount 0.1 wt %) was “A”, the “Sunlight exposure (80 MJ) evaluation” value ([2]; natural perfume Orange oil, photostabilizer amount 0.1 wt %) was “A” and the “Sunlight exposure (80 MJ) evaluation” value ([2]; natural perfume Orris oil, photostabilizer amount 0.2 wt %) was “A”. For the same compound, the “Sunlight exposure (80 MJ) evaluation” value ([2]; natural perfume Patchouli oil, photostabilizer amount 0.01 wt %) was “A”, the “Sunlight exposure (80 MJ) evaluation” value ([2]; natural perfume Pepper oil, photostabilizer amount 0.001 wt %) was “A” and the “Sunlight exposure (80 MJ) evaluation” value ([2]; natural perfume Peppermint oil, photostabilizer amount 0.03 wt %) was “A”. The “Sunlight exposure (80 MJ) evaluation” value ([2]; natural perfume Sandals wood oil, photostabilizer amount 0.01 wt %) was “A”, the “Sunlight exposure (80 MJ) evaluation” value ([2]; natural perfume Tuberose oil, photostabilizer amount 0.03 wt %) was “A” and the “Sunlight exposure (80 MJ) evaluation” value ([2]; natural perfume Vetiver oil, photostabilizer amount 0.2 wt %) was “A”. For the same compound, the change of smell ([2]; natural perfume, summary of Table 17) was “very small in comparison with other photostabilizers”, the “Sunlight exposure (80 MJ) Smell evaluation” value ([2]; synthetic perfume 2,6-Nonadienal, photostabilizer amount 0.03 wt %) was “A” and the “Sunlight exposure (80 MJ) Smell evaluation” value ([2]; synthetic perfume Benzyl benzoate, photostabilizer amount 0.1 wt %) was “A”. For the same compound, the “Sunlight exposure (80 MJ) Smell evaluation” value ([2]; synthetic perfume Cyclopentadecanone, photostabilizer amount 0.05 wt %) was “A”, the “Sunlight exposure (80 MJ) Smell evaluation” value ([2]; synthetic perfume Eugenol, photostabilizer amount 0.1 wt %) was “A” and the “Sunlight exposure (80 MJ) Smell evaluation” value ([2]; synthetic perfume Farnesol, photostabilizer amount 0.01 wt %) was “A”. The “Sunlight exposure (80 MJ) Smell evaluation” value ([2]; synthetic perfume I-Carvone, photostabilizer amount 0.05 wt %) was “A”, the “Sunlight exposure (80 MJ) Smell evaluation” value ([2]; synthetic perfume Indole, photostabilizer amount 0.2 wt %) was “A” and the “Sunlight exposure (80 MJ) Smell evaluation” value ([2]; synthetic perfume Lilial, photostabilizer amount 0.3 wt %) was “A”. For the same compound, the “Sunlight exposure (80 MJ) Smell evaluation” value ([2]; synthetic perfume Lyral, photostabilizer amount 0.3 wt %) was “A”, the “Sunlight exposure (80 MJ) Smell evaluation” value ([2]; synthetic perfume Phenylacetaldehyde dimethyl acetal, photostabilizer amount 0.2 wt %) was “A” and the “Sunlight exposure (80 MJ) Smell evaluation” value ([2]; synthetic perfume cis-3-Hexenol, photostabilizer amount 0.01 wt %) was “A”. For the same compound, the “Sunlight exposure (80 MJ) Smell evaluation” value ([2]; synthetic perfume α-Hexyl cinnamic aldehyde, photostabilizer amount 0.03 wt %) was “A”, the “Sunlight exposure (80 MJ) Smell evaluation” value ([2]; synthetic perfume β-Caryophyllene, photostabilizer amount 0.01 wt %) was “A” and the “Sunlight exposure (80 MJ) Smell evaluation” value ([2]; synthetic perfume β-Ionone, photostabilizer amount 0.05 wt %) was “A”. The “Sunlight exposure (80 MJ) Smell evaluation” value ([2]; synthetic perfume β-Phenylethyl alcohol, photostabilizer amount 0.03 wt %) was “A”, the “Sunlight exposure (80 MJ) Smell evaluation” value ([2]; synthetic perfume γ-Undecalactone, photostabilizer amount 0.1 wt %) was “A” and the change of smell ([2]; synthetic perfume, summary of Table 18) was “very small in comparison with other photostabilizers”. The “Sunlight exposure (80 MJ) Appearance” value [3, 5] was “A”, the “Sunlight exposure (80 MJ) Residual yield [%]” value [3, 5] was 99.3% and the “Sunlight exposure (80 MJ) Appearance” value [3, 6] was “A”. For the same compound, the “Sunlight exposure (80 MJ) Residual yield [%]” value [3, 6] was 98.3%, the “Sunlight exposure (80 MJ) Appearance” value [3, 7] was “A” and the “Sunlight exposure (80 MJ) Residual yield [%]” value [3, 7] was 98.8%. For the same compound, the “Sunlight exposure (80 MJ) Appearance” value [3, 8] was “B”, the “Sunlight exposure (80 MJ) Residual yield [%]” value [3, 8] was 95.8% and the “Sunlight exposure (80 MJ) Appearance” value [3, 9] was “A”. For the same compound, the “Sunlight exposure (80 MJ) Residual yield [%]” value [3, 9] was 100.0%, the “Sunlight exposure (80 MJ) Appearance” value [3, 10] was “A” and the “Sunlight exposure (80 MJ) Residual yield [%]” value [3, 10] was 97.2%. For the same compound, the “Sunlight exposure (80 MJ) Appearance” value [3, 11] was “A”, the “Sunlight exposure (80 MJ) Residual yield [%]” value [3, 11] was 99.4% and the “Sunlight exposure (80 MJ) Appearance” value [3, 12] was “B”. The “Sunlight exposure (80 MJ) Residual yield [%]” value [3, 12] was 98.5%, the “Sunlight exposure (80 MJ) Appearance” value [3, 13] was “A” and the “Sunlight exposure (80 MJ) Residual yield [%]” value [3, 13] was 100.1%. The “Sunlight exposure (80 MJ) Appearance” value [3, 14] was “B”, the “Sunlight exposure (80 MJ) Residual yield [%]” value [3, 14] was 99.2% and the “residual yield of a drug” value ([3]; with a sequestering agent, compared with compositions without, Table 30) was “very small”. The Discoloration [4] was “No”.
